Measured values from patent US20200030463A1, “USE RADIUM RA-223 […] THE TREATMENT OF MULTIPLE MYELOMA” (Bayer Aktiengesellschaft, priority 2017, published 2020).

What was measured:
[1] = test system: JJN-3, L-363, LP-1, MOLP-8, RPMI-8226, OPM-2 and 5TGM1 cells; assay: Proliferation assays, all cancer cell lines tested; format: cell-based, human and mouse
Method: (§1) Proliferation assays were performed with human plasma cell leukemia (JJN-3, L-363), human multiple myeloma (LP-1, MOLP-8, RPMI-8226 and OPM-2) and mouse MM 5TGM1 cells. The corresponding in vivo effects were studied in a syngeneic 5TGM1 mouse MM model. Female C57BL/KaLwRij mice (6-9 weeks old, n=15/group) were inoculated with 5TGM1 cells via tail vein and 26 days later, radium-223 (300 kBq/kg, single iv injection) and/or bortezomib (1 mg/kg ip, twice a week) or vehicle control were administered. The development of the osteolytic lesions was detected by radiography. The hind limbs were used for histological analyses and total activity measurement performed by a gamma-counter. Osteoclast number at tumor-bone interface was measured using TRAP staining.

[2] = test system: syngeneic 5TGM1 mouse MM model; assay: Syngeneic 5TGM1 mouse MM model; format: in vivo; settings: p<0.05 bortezomib; for osteolytic lesion area: radiography, radium-223 300 kBq/kg single iv and/or bortezomib 1 mg/kg ip twice a week, p=0.01 radium-223, p<0.001 combination
Method: as §1

[3] = test system: OPM-2 human multiple myeloma cells; assay: Proliferation assay, OPM-2; format: cell-based; settings: OPM-2 cells
Method: as §1

[4] = test system: JJN-3 human plasma cell leukemia cells; assay: Proliferation assay, JJN-3; format: cell-based; settings: JJN3 cells
Method: as §1

[5] = test system: patients with bone metastases; settings: cited from earlier work
[6] = test system: MOLP-8 human multiple myeloma cells; assay: Proliferation assay, MOLP-8; format: cell-based; settings: MOLP-8 cells
Method: as §1, with “staining. Bortezomib inhibited proliferation of all cancer cell lines tested at 25 nM (JJN3 and OPM-2 at 2.5 nM) and radium-223 at 800 Bq/ml (L-363 and MOLP-8 at 200 Bq/ml). […] In 5TGM1 MM model, both bortezomib and radium-223 decreased osteolytic lesion area as monotherapy (p<0.05 and p=0.01, respectively). […] All treatments were well tolerated.” for “staining.”

[7] = single dose 250 kBq per kg body weight; cited from earlier work
[8] = test system: patients with CRPC and bone metastases; settings: cited from earlier work
[9] = test system: L-363 human plasma cell leukemia cells; assay: Proliferation assay, L-363; format: cell-based; settings: L-363 cells
Method: as §1, with “staining. Bortezomib inhibited proliferation of all cancer cell lines tested at 25 nM (JJN3 and OPM-2 at 2.5 nM) and radium-223 at 800 Bq/ml (L-363 and MOLP-8 at 200 Bq/ml). […] In 5TGM1 MM model, both bortezomib and radium-223 decreased osteolytic lesion area as monotherapy (p<0.05 and p=0.01, respectively). […] All treatments were well tolerated.” for “staining.”

[10] = phase 2 studies, CRPC and bone metastases

For `CC(C)C[C@H](NC(=O)[C@H](Cc1ccccc1)NC(=O)c1cnccn1)B(O)O` [bortezomib], the “concentration at which proliferation was inhibited” value [1] was 25 nM, the “number of osteoclasts at tumor-bone interface” value ([2]; TRAP staining, p<0.01 combination) was “decreased” and the osteolytic lesion area [2] was “decreased”. The “concentration at which proliferation was inhibited” value [3] was 2.5 nM and the “concentration at which proliferation was inhibited” value [4] was 2.5 nM.
For `[Cl][223Ra][Cl]` [radium-223, radium-223 dichloride], the safety profile ([5]; phase 1 and 2 studies) is listed as “favorable safety profile with minimal myelotoxicity”, the “disease-related biomarkers (bone ALP, PSA)” value [5, 10] is listed as “improves” and the pain [5, 10] is listed as “reduces pain”. The “activity concentration at which proliferation was inhibited” value [1] was 800 Bq/ml, the “activity concentration at which proliferation was inhibited” value [6] was 200 Bq/ml and the osteolytic lesion area [2] was “decreased”. The “cases of grade 3 neutropenia” value [7] was 1/5, the observed adverse reactions [7] was “diarrhea and reversible myelosuppression” and the “median survival longer than placebo” value ([8]; CRPC with bone metastases) was 2.8 months. The median overall survival ([8]; Phase III clinical trials) was “Significant increase”, the “reduction in risk of death compared with placebo” value ([8]; overall survival, CRPC with bone metastases) was 30.5% and the “time to first skeletal-related event” value ([8]; vs placebo) was “significantly prolonged”. For the same compound, the “activity concentration at which proliferation was inhibited” value [9] was 200 Bq/ml.
